Data from paper PMC5517430, “2,3,7,8-Tetrachlorodibenzo-p-dioxin (TCDD)-elicited effects on bile acid homeostasis: Alterations in biosynthesis, enterohepatic circulation, and microbial metabolism” (Scientific Reports, 2017).
Where “and” joins values, the source holds several entries; their conditions need not be identical. Equal values may be shown once. Read-outs that look alike come from different tables or passages of the source.

Assays:
[1] = parameters: method as in PMID 6138222; conditions: mice; cited from earlier work
[2] = system: Gpbar1; assay: Hepatic qRT-PCR; format: in vivo; conditions: Mus musculus; male mice, 30 µg/kg TCDD every 4 d for 28 d; read-out: Gpbar1 hepatic expression (qRT-PCR), fold induction
Procedure: Given the low (≤10) read counts for Gpbar1 in the RNA-Seq dataset, differential expression was confirmed by qRT-PCR[13]. Total hepatic RNA was reverse transcribed by SuperScript II (Invitrogen) using oligo dT primer according to the manufacturer’s protocol. PCR amplification was conducted on a Bio-Rad CFX Connect Real-Time PCR Detection System. Gene expression relative to vehicle control was calculated using the 2^−∆∆CT method, where each sample was normalized to the geometric mean of 3 housekeeping genes (Actb, Gapdh, and Hprt). Gene expression data are plotted relative to vehicle control. Forward and reverse primer sequences are provided in Supplementary Table S2.

[3] = parameters: method as in PMID 19660807, PMID 8145287; conditions: humans; cited from earlier work
[4] = system: bile acid mixture; assay: Hydrophobicity index (HIx) of bile acid mixtures in liver, serum and feces; format: in vivo, mouse; conditions: male mice
Excerpt: In general, bile acid toxicity increases with hydrophobicity, [39], which depends on ionization, hydroxylation, and conjugation (taurine, glycine, sulfate, glucoronate)[40]. The potential toxicity of a bile acid mixture can be estimated by calculating the hydrophilic-hydrophobic balance using the hydrophobicity index (HIx) of each bile acid species in the mixture, as described by Heuman[41]. […] Consequently, the shift towards increased hydrophobicity is primarily driven by a decrease in the relative abundance of T-α-MCA, a highly hydrophilic species.

[5] = system: bile acids; assay: HRAM-LC-MS analysis of bile acids in liver, serum and feces; format: in vivo, mouse; conditions: male mice
Procedure: Serum (10 µL) was added to 10 µL of a 20 ng/µL stock solution of deuterated (d4) glycochenodeoxycholic acid (GCDCA, from Steraloids, Inc.) in methanol, and extracted with ice-cold methanol as previously described. Frozen liver samples (50 mg) or dried fecal pellets (50 mg) were combined with 10 µL of 20 ng/µL d4-GCDCA stock solution and 1.0 mL of ice-cold methanol, and homogenized with 0.5 mm zirconium oxide beads using an air-cooled Bullet Blender (NextAdvance). Extracts were dried under vacuum, reconstituted in 2.0 mL of 50% methanol, filtered through 0.2 µm nylon membranes (Pall Life Sciences), and stored at −80 °C.
Bile acids were analyzed by high resolution/accurate mass (HRAM)-LC-MS using an Agilent 1260 capillary HPLC coupled to a Thermo Scientific LTQ-Orbitrap Velos mass spectrometer. Extracts (2 µL) were injected into water containing 0.1% formic acid, and loaded onto an inline peptide Opti-Trap (Optimize Technologies) for 3.0 min at 5 µL/min for desalting and concentration. Bile acids were then eluted by a 30 min water/acetonitrile gradient from 98% water containing 0.1% formic acid to 95% acetonitrile containing 0.1% formic acid (modified from ref. [73]) and separated by a ProntoSil C18AQ 200 µm × 50 mm, 3 u column (nanoLCMS Solutions) at a flow rate of 2 µL/min. The column eluent was introduced to the LTQ-Orbitrap Velos mass spectrometer by an Advance nano-ESI source (Michrom BioResources) at a spray voltage of −1.7 kV. High resolution (R = 100,000 at 400 m/z) negative ion mass spectra were collected over 300–900 m/z. The ion transfer tube of the mass spectrometer was maintained at 250 °C, and the S-lens was set to 50%. Appropriate sample dilution factors were determined empirically to ensure a linear range of detector response. Chromatographic peak alignment, feature detection, quantitation and bile acid identification were performed using MAVEN[75] and SECD-LIMSA[76] software. All bile acids were identified by comparison of retention time and accurate mass data against reference standards. Relative quantitation was performed against the deuterated GCDCA internal standard. TCDD-elicited changes in bile acid species are reported as fold changes relative to vehicle controls.

[6] = liver, 10 µg/kg TCDD every 4 d for 28 d, relative to vehicle
[7] = liver, 30 µg/kg TCDD every 4 d for 28 d, relative to vehicle
[8] = liver, dose not stated, 3–30 µg/kg TCDD
[9] = liver, dose-dependent, 3–30 µg/kg TCDD
[10] = serum, 30 µg/kg TCDD every 4 d for 28 d, relative to vehicle

Clc1cc2c(cc1Cl)Oc1cc(Cl)c(Cl)cc1O2 [TCDD, 2,3,7,8-tetrachlorodibenzo-p-dioxin]
Half-life [1]: 190 to 288 h | fold induction at 0.03 mg/kg [2]: 4.3 | Half-life [3]: 1–11 years | Shift of fecal bile acid mixture HIx ([4]; feces, TCDD): moderate increase in hydrophobicity | Shift of hepatic bile acid mixture HIx ([4]; liver, 3–30 µg/kg TCDD every 4 d for 28 d): toward greater hydrophobicity | Shift of serum bile acid mixture HIx ([4]; serum, TCDD every 4 d for 28 d): more hydrophilic | Deoxycholic acid disulfate DCA-di-SO4, Fold Change FECES ([5]; feces, 30 µg/kg TCDD, relative to vehicle, n = 2 cages): 4.9 fold | Taurolithocholic acid TLCA, Fold Change FECES ([5]; feces, 30 µg/kg TCDD, relative to vehicle, n = 2 cages, ∞ = detected in treated animals but not controls): undetectable in controls to detectable in treated mice | Fecal cholic acid 7-sulfate (CA-7-SO4), fold decrease ([5]; feces, 30 µg/kg TCDD): 55.2 fold | Fecal taurocholic acid 3-sulfate (TCA-3-SO4), fold decrease ([5]; feces, 30 µg/kg TCDD): 10.3 fold | Fecal α-MCA, fold decrease ([5]; feces, 30 µg/kg TCDD): 10.3 fold | Total fecal bile acids, fold decrease ([5]; feces, 30 µg/kg TCDD): 2.8 fold | Taurolithocholic acid TLCA, Fold Change LIVER [5, 6]: 72.1 fold | Total Bile Acids, Fold Change LIVER [5, 6]: 2.1 fold | Cholic acid CA, Fold Change LIVER [5, 7]: 4.7 fold | Taurolithocholic acid TLCA, Fold Change LIVER [5, 7]: > 200 fold and 233.8 fold | Total Bile Acids, Fold Change LIVER [5, 7]: 4.6 fold | Effect on hepatic CDCA ([5]; liver, 3–30 µg/kg TCDD): no effect | Effect on hepatic α/β-MCA ([5]; liver, 3–30 µg/kg TCDD): no effect | Hepatic glycocholic acid (GCA), fold increase [5, 8]: 3.9 fold | Hepatic tauro-α-muricholic acid (T-α-MCA), fold increase [5, 8]: 3.7 fold | Hepatic taurocholic acid (TCA), fold increase [5, 8]: 9.7 fold | Total hepatic conjugated primary bile acid levels, max fold increase [5, 9]: 4.7 fold | Total hepatic levels of conjugated secondary bile acids, max fold increase [5, 9]: 77.7 fold | Cholic acid CA, Fold Change SERUM [5, 10]: 58.2 fold | Deoxycholic acid DCA, Fold Change SERUM [5, 10]: 79.7 fold | Glycocholic acid GCA, Fold Change SERUM [5, 10]: 134.4 fold | Muricholic acid (α) α-MCA, Fold Change SERUM [5, 10]: 97.0 fold | Muricholic acid (β) β-MCA, Fold Change SERUM [5, 10]: 52.8 fold | Taurocholic acid TCA, Fold Change SERUM [5, 10]: 298.9 fold | Total Bile Acids, Fold Change SERUM [5, 10]: 45.4 fold
